Measured values from US8071325B2, “Flow cytometric method and kit for metal-induced sensitivity” (The Trustees of the University of Pennsylvania, priority 2004, dated 2011).
Marks after values point to notes of the source that are not given here.

Columns and labels:
[1] = tested on: CFSE-labeled peripheral blood lymphocytes (CD3+, CD3+/CD4+, CD3+/CD8+ T cells); assay: CFSE dye dilution proliferation measured by flow cytometry; assay type: cell-based, human; settings: for proliferative ratio (PR, %M2/%M1): mean +/- SEM
Procedure: Cell surface marker staining was performed. The following monoclonal antibodies were used: Phycoerythin (PE) conjugated anti-human CD4, Tricolor-conjugated anti-human CD3, Allophycocyanin (APC) conjugated anti-human CD8 (Caltag, Burlingame, Calif.). The vital dye TO-PRO®-3 (Molecular Probes Inc., Eugene, Oreg.) was used to discriminate live and dead cells.
The CFSE labeling method was adapted from a previously described protocol. Aliquots of the same PBL sample used in the BeLPT assay were split and washed three times in 10 ml of phosphate buffered saline (dPBS, Gibco BRL, Grand Island, N.Y.) at room temperature. The cells were adjusted to 10^6 cells per milliliter, and CFSE (Molecular Probes, Eugene, Oreg.) was added at a final concentration of 1 μM/ml. The cells were vortexed for ten seconds and then incubated for ten minutes in the dark at room temperature with gentle shaking. After incubation an equal volume of sterile, heat inactivated human serum (Gibco BRL, Grand Island, N.Y.) was added to the sample for one minute to quench the reaction. The cells were washed twice, adjusted to the concentration 2×10^6/ml in 10% human heat inactivated serum.
Following CFSE (carboxy fluorescein diacetate succinimide ester) labeling, the cells were cultured in 24-well plates at 2×10^6 per well in the presence of either media alone, PHA, Candida, or either 10 or 100 μM of beryllium sulfate. The cells were incubated for seven days at 37° C. and 5% CO2. Preliminary experiments titrated the optimal dose of CFSE and time of incubation. Surface labeling was performed at the time of harvest using CD3TC, CD4PE and CD8APC in some experiments. TO-PRO®-3 was added to define live cells in some experiments.
All data were acquired on a four-color, dual laser FACSCalibur (Becton Dickinson, San Jose, Calif.). CFSE was measured in Fl-1 channel (530/30-nm bandpass filter), CD4PE in the Fl-2 channel (585/42-nm bandpass filter), CD3TC in the Fl-3-channel (670-nm longpass filter) using excitation from the 488 nm blue laser and TO-PRO®-3 or CD8APC in Fl-4 channel (661/16 bandpass filter) by excitation using the 635 nm red diode laser. Compensation for CFSE in multiparameter flow cytometry is dose dependent and determined empirically.
The basic analysis gating strategy was as follows (FIG. 1): for analysis of CD3+ T cells alone, an initial region was defined as lymphocytes by light scatter and a broad region was set to include medium to high forward/low side scatter events after stimulation with PHA (FIG. 1A, R1) to include all proliferating lymphocytes. For CD3+ T cells, the R1 data were plotted in a contour plot of CD3TC versus TO-PRO®-3 to identify the live CD3+ T Cells (FIG. 1B, R2). The R2 population was expressed on a contour plot of CD3+CD4+ where a double positive region was defined as R3 (FIG. 1C). For final analyses, each population was then analyzed for CFSE (FL1) fluorescence, representing proliferation, on a single parameter histogram using a logical gate of either R1*R2 for CD3+ cells only and R1*R2*R3 for CD3+4+ cells. In experiments where only data from CD3+ or CD3+4+ cells were collected, a live gate on TO-PRO®-3 negative (“viable”) cells was also used in acquisition. When specific CD4+ and CD8+ T cell determination was performed, the viability dye was eliminated. The strategy was similar to that above with light scatter gating (R1) followed by identification of the CD3+ events using a SSC vs CD3+ plot (R2) and CD4+ (R3) and CD8+(R4) identification followed by single parameter histogram analysis of the CFSE fluorescence (for CD4+, R1*R2*R3; for CD8, R1*R2*R4*).
CFSE flow cytometric data files were analyzed using CellQuest™ acquisition/analysis software (Becton Dickinson, San Jose, Calif.). Fifty thousand (50,000) events were collected. The data are reported as the proliferative ratio (PR) defined as the ratio of the percentage of divided cells to undivided cells on day 7 (%M2/%M1). […]

[2] = tested on: Peripheral blood lymphocytes (PBLs); assay: Blood BeLPT (3H-thymidine incorporation assay); assay type: cell-based, human; settings: for stimulation index (SI): mean ± SEM
Procedure: Beryllium workers (present and former), referred to the Hospital of the University of Pennsylvania (HUP) for possible CBD, were tested. […] CBD was diagnosed when there was evidence of BH with granulomas on biopsy and/or radiologic changes consistent with a granulomatous process. Normal unexposed volunteers were used as controls.
Peripheral blood lymphocytes (PBLs) were isolated from heparinized blood under sterile conditions using density centrifugation with lymphocyte separation medium (ICN Biomedicals Inc., Aurora, Ohio). Blood BeLPT was performed. The cells were cultured at a concentration of 2.5×10^5 cells/well. Stimulants included 500 μg/ml of phytohemagglutinin (PHA) (L-9132; Sigma Chemical Co., St Louis, Mo.), 20 μl/ml of Candida(M15; Greer Labs, Lenoir, N.C.) and 100 μM or 10 μM of beryllium sulfate (Blush Wellman, Cleveland, OH). After culturing the cells in an incubator (5% CO2 and 37° C.) for 3, 5 or 7 days, the cells were pulsed with ^3H thymidine (DuPont NEN, Boston, Mass.) overnight (ice. 16-24 hours) and then harvested on a filter fiber (Wallac, Turku, Finland). The uptake of ^3H thymidine was measured as counts per minute (CPM) using a Wallac 1205 beta plate liquid scintillation system (Wallac Inc., Gaithersburg, Md.). Results were expressed as a stimulation index (SI=mean CPM of test wells/mean CPM of control wells). A positive response was defined as a SI>3.0 for blood A positive test required that a positive response be recorded on two different days or at two different concentrations of beryllium.
All values are presented as ± SEM (standard error of the mean). Data are only presented if a minimum of 1,000 cells were detected within a population. For the tritiated thymidine test, the results were expressed as a stimulation index and group differences (between controls and beryllium-sensitive populations) were evaluated using the Student's T test. For the CFSE tests, since the results were expressed as PR, the Mann-Whitney version of the […] was used to determine if there was a difference between the normal donors and the beryllium exposed patients. Statistical significance was defined as p<0.05.

Compound: O=S(=O)([O-])[O-].[Be+2] [Be, beryllium sulfate]
- CFSE-determined response, sensitized versus controls (in words) ([1]; CD3+ and CD3+/CD4+ T cells from beryllium-sensitized subjects, both doses): significant difference
- CFSE-determined response (in words) ([1]; CD3+ or CD3+/CD4+ high cells from controls, 10 or 100 μM): minimal response
- proliferative ratio (PR, %M2/%M1) ([1]; CD3+/CD4+, Be 10 μM, day 7, beryllium-exposed sensitized (n = 24)): 0.105 ± 0.038
- proliferative ratio (PR, %M2/%M1) ([1]; CD3+/CD4+, Be 10 μM, day 7, normal controls (n = 9)): 0.027 ± 0.005
- proliferative ratio (PR, %M2/%M1) ([1]; CD3+/CD4+, Be 100 μM, day 7, beryllium-exposed sensitized (n = 24)): 0.089 ± 0.027
- proliferative ratio (PR, %M2/%M1) ([1]; CD3+/CD4+, Be 100 μM, day 7, normal controls (n = 9)): 0.029 ± 0.010
- proliferative ratio (PR, %M2/%M1) ([1]; CD3+, Be 10 μM, day 7, beryllium-exposed sensitized (n = 24)): 0.115 ± 0.046
- proliferative ratio (PR, %M2/%M1) ([1]; CD3+, Be 10 μM, day 7, normal controls (n = 9)): 0.027 ± 0.005
- proliferative ratio (PR, %M2/%M1) ([1]; CD3+, Be 100 μM, day 7, beryllium-exposed sensitized (n = 24)): 0.099 ± 0.026
- proliferative ratio (PR, %M2/%M1) ([1]; CD3+, Be 100 μM, day 7, normal controls (n = 9)): 0.030 ± 0.008
- CFSE-determined response, sensitized versus normal donors (in words) ([1]; CD8+ T cells, normal donors or beryllium-sensitized individuals): no differences were noted
- proliferative ratio (PR, %M2/%M1) ([1]; Table 3 series (CD8 APC staining), CD3+, Be 10 μM, beryllium-exposed sensitized (n = 14)): 0.156 +/− 0.114‡
- proliferative ratio (PR, %M2/%M1) ([1]; Table 3 series (CD8 APC staining), CD3+, Be 10 μM, normal controls (n = 6)): 0.012 +/− 0.002^†
- proliferative ratio (PR, %M2/%M1) ([1]; Table 3 series (CD8 APC staining), CD3+, Be 100 μM, beryllium-exposed sensitized (n = 14)): 0.188 +/− 0.137‡
- proliferative ratio (PR, %M2/%M1) ([1]; Table 3 series (CD8 APC staining), CD3+, Be 100 μM, normal controls (n = 6)): 0.013 +/− 0.002
- proliferative ratio (PR, %M2/%M1) ([1]; Table 3 series, CD4+ (CD3+/CD4+), Be 10 μM, beryllium-exposed sensitized (n = 14)): 0.164 +/− 0.112‡
- proliferative ratio (PR, %M2/%M1) ([1]; Table 3 series, CD4+ (CD3+/CD4+), Be 10 μM, normal controls (n = 6)): 0.015 +/− 0.003
- proliferative ratio (PR, %M2/%M1) ([1]; Table 3 series, CD4+ (CD3+/CD4+), Be 100 μM, beryllium-exposed sensitized (n = 14)): 0.210 +/− 0.114‡
- proliferative ratio (PR, %M2/%M1) ([1]; Table 3 series, CD4+ (CD3+/CD4+), Be 100 μM, normal controls (n = 6)): 0.015 +/− 0.002
- proliferative ratio (PR, %M2/%M1) ([1]; Table 3 series, CD8+ (CD3+/CD8+), Be 10 μM, beryllium-exposed sensitized (n = 11)): 0.016 +/− 0.003
- proliferative ratio (PR, %M2/%M1) ([1]; Table 3 series, CD8+ (CD3+/CD8+), Be 10 μM, normal controls (n = 4)): 0.013 +/− 0.003
- proliferative ratio (PR, %M2/%M1) ([1]; Table 3 series, CD8+ (CD3+/CD8+), Be 100 μM, beryllium-exposed sensitized (n = 11)): 0.019 +/− 0.002
- proliferative ratio (PR, %M2/%M1) ([1]; Table 3 series, CD8+ (CD3+/CD8+), Be 100 μM, normal controls (n = 4)): 0.011 +/− 0.004
- CFSE-determined response (in words) ([1]; beryllium-sensitive population, CD3+ population, 10 μM, p<0.05): significant positive response
- CFSE-determined response (in words) ([1]; beryllium-sensitive population, CD3+/CD4+ population, 10 μM and 100 μM, p<0.05): significant positive response
- stimulation index (SI) ([2]; Day 5, Be 10 μM, beryllium-exposed sensitized (n = 24)): 12.1 ± 3.96
- stimulation index (SI) ([2]; Day 5, Be 10 μM, normal controls (n = 9)): 0.72 ± 0.08
- stimulation index (SI) ([2]; Day 5, Be 100 μM, beryllium-exposed sensitized (n = 24)): 12.8 ± 4.93
- stimulation index (SI) ([2]; Day 5, Be 100 μM, normal controls (n = 9)): 0.74 ± 0.09
- stimulation index (SI) ([2]; Day 7, Be 10 μM, beryllium-exposed sensitized (n = 24)): 12.5 ± 4.43
- stimulation index (SI) ([2]; Day 7, Be 10 μM, normal controls (n = 9)): 0.44 ± 0.08
- stimulation index (SI) ([2]; Day 7, Be 100 μM, beryllium-exposed sensitized (n = 24)): 11.5 ± 4.86
- stimulation index (SI) ([2]; Day 7, Be 100 μM, normal controls (n = 9)): 0.52 ± 0.12
- proliferative response by thymidine incorporation (in words) ([2]; beryllium-sensitized population, p<0.05): positive responses were noted
- proliferative response by thymidine incorporation (in words) ([2]; control group): positive responses to beryllium were not noted

Compound: phytohemagglutinin [PHA]
- CFSE-determined response (in words) ([1]; CD3+ and CD3+CD4+ cells from both the control and the beryllium-sensitive populations): positive responses
- CFSE-determined response (in words) ([1]; CD3+, CD3+/CD4+ and CD3+/CD8+ T cells from controls (n=6) and beryllium-sensitized (n=14) populations): responded
- proliferative ratio (PR, %M2/%M1) ([1]; CD3+/CD4+, PHA, day 7, beryllium-exposed sensitized (n = 24)): 15.756 ± 5.094
- proliferative ratio (PR, %M2/%M1) ([1]; CD3+/CD4+, PHA, day 7, normal controls (n = 9)): 10.064 ± 2.753
- proliferative ratio (PR, %M2/%M1) ([1]; CD3+, PHA, day 7, beryllium-exposed sensitized (n = 24)): 10.358 ± 4.730
- proliferative ratio (PR, %M2/%M1) ([1]; CD3+, PHA, day 7, normal controls (n = 9)): 9.853 ± 2.908
- stimulation index (SI) ([2]; Day 3, PHA 500 μg/ml, beryllium-exposed sensitized (n = 24)): 178 ± 23.2
- stimulation index (SI) ([2]; Day 3, PHA 500 μg/ml, normal controls (n = 9)): 137 ± 38.9
- proliferative response by thymidine incorporation (in words) ([2]; control and beryllium-sensitized populations, PHA on day 3, Candida on day 5 and on day 7): Positive responses
